This experiment deals with T1, JAK3 tyrosine kinase (Homo sapiens, UniProt P52333).
T1 construct: purchased Carnabioscience Co
T1 sequence (P52333 1-1124): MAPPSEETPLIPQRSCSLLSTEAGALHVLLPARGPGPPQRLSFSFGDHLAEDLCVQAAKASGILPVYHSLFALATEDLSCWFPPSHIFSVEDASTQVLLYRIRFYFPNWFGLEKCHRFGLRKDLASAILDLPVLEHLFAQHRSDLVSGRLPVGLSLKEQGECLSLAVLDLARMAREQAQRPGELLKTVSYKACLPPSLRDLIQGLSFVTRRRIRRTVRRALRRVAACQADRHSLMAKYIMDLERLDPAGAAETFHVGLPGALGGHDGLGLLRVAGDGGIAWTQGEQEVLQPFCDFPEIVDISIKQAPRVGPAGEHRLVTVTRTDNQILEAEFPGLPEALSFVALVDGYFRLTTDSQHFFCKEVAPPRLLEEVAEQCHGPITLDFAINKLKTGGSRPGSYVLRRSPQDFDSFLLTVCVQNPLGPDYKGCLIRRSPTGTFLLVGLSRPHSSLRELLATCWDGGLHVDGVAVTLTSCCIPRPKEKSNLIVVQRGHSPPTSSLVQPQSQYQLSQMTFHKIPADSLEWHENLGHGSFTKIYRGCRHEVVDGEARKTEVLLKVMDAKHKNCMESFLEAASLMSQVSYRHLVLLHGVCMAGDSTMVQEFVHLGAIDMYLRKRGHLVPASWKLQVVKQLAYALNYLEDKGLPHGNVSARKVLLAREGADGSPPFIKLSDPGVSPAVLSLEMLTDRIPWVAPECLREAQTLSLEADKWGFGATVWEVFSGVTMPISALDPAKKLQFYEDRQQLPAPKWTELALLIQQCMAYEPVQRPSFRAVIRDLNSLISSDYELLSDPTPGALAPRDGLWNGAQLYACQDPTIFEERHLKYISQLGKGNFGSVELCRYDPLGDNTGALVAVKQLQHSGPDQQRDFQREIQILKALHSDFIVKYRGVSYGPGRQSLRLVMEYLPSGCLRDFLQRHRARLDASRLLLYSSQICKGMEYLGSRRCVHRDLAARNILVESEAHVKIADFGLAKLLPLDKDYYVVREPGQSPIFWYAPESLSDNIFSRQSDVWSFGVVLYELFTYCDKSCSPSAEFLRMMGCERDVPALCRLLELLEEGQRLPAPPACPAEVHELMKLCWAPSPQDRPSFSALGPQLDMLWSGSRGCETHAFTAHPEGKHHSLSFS
In words: Test 1: inhibitory activity to JAK3 tyrosine kinase (ELISA). In kind it is biochemical. To be noted: 25 μM ATP in substrate solution, 30° C. for 1 hour, n=2. As to the method: Test 1: Test for inhibitory activity to JAK2 and JAK3 tyrosine kinase 1. […] The test material was dissolved in dimethylsulfoxide (DMSO) to be 10 mM, and further diluted with DMSO to be 100-fold concentrations for measurement (1000, 300, 100, 30, 10, 3, 1, 0.3, 0.1, 0.03, 0.01 μM). In addition, solutions diluted with an assay buffer up to 20 times were used as solutions of the test material. As a negative control, a solution of DMSO diluted 20 times with an assay buffer was used. […] 2. Measurement of the Activities of JAK2 and JAK3 Tyrosine Kinases The activity was determined by ELISA. […] The absorbance was measured by means of a micro-plate reader (BIO-RAD; Model 3550) at 450 nm. 3. Analysis of the Results of the Measurement The measured absorbance was subjected to a non-linear regression analysis by means of a SAS system (SAS Institute Inc.), and the concentration (IC50) of the test material which inhibited 50% of the activity of each tyrosine kinase was estimated.
Background: ELISA stands for enzyme-linked immunosorbent assay.

SMILES strings stand for the structures. pIC50: −log10 of the molar value. Where a name gives a salt, the structure may show the parent alone.

For orientation: pIC50 means −log10 of the IC50, conventionally taken in molar units. A high value points to a low IC50.

Regarding `COc1cc(Nc2cnccn2)nc(N[C@@H](C)c2ccc(F)cc2)c1` [Example 127, (S)—N^2-[1-(4-Fluorophenyl)ethyl]-4-methoxy-N^6-(pyrazin-2-yl)pyridine-2,6-diamine], the pIC50 is 6.70. As to `C[C@H](Nc1cc(N2CCS(=O)(=O)CC2)cc(Nc2cnccn2)n1)c1ccc(F)cc1` [Example 128, 4-{2-[(1S)-1-(4-Fluorophenyl)ethylamino]-6-(pyrazin-2-ylamino)pyridin-4-yl}-1λ^6,4-thiomorpholin-1,1-dione], the pIC50 is 7.34. As to `C[C@H](Nc1cc(N2CCC(O)CC2)cc(Nc2cnccn2)n1)c1ccc(F)cc1` [Example 129, (S)-1-{2-[1-(4-Fluorophenyl)ethylamino]-6-(pyrazin-2-ylamino)pyridin-4-yl}piperidin-4-ol], the negative logarithm of the IC50 (pIC50) was 6.42. In turn, `CC(=O)N1CCCN(c2cc(Nc3cnccn3)nc(N[C@@H](C)c3ccc(F)cc3)c2)CC1` [Example 130, (S)-1-(4-{2-[1-(4-fluorophenyl)ethylamino]-6-(pyrazin-2-ylamino)pyridin-4-yl}-1,4-diazepan-1-yl)ethanone] gave a negative-log IC50 (pIC50) of 6.24. Molecule `C[C@H](Nc1cc(Nc2ncccn2)cc(Nc2cnccn2)n1)c1ccc(F)cc1` [Example 131, (S)—N^2-[1-(4-Fluorophenyl)ethyl]-N^6-(pyrazin-2-yl)-N^4-(pyrimidin-2-yl)pyridine-2,4,6-triamine] gave a pIC50 of 6.74. For `C[C@H](Nc1cc(Nc2ccccn2)cc(Nc2cnccn2)n1)c1ccc(F)cc1` [Example 132, (S)—N^2-[1-(4-Fluorophenyl)ethyl]-N^6-(pyrazin-2-yl)-N^4-(pyridin-2-yl)pyridine-2,4,6-triamine] the value was 6.46.

`C[C@H](Nc1cc(N2CCC3(CC2)OCCO3)cc(Nc2cnccn2)n1)c1ccc(F)cc1` [Example 133, N^2-[(S)-1-(4-Fluorophenyl)ethyl]-N^6-(pyrazin-2-yl)-4-(1,4-dioxa-8-azaspiro[4.5]decan-8-yl)pyridine-2,6-diamine] had a negative-log IC50 (pIC50) of 6.64.

`COC(=O)c1cc(Nc2cnccn2)nc(N[C@@H](C)c2ccc(F)cc2)c1` [Example 134, Methyl (S)-2-[1-(4-fluorophenyl)ethylamino]-6-(pyrazin-2-ylamino)isonicotinate] had a pIC50 of 6.21. On to `CNS(=O)(=O)c1ccc(-c2cc(Nc3cnccn3)nc(N[C@@H](C)c3ccc(F)cc3)n2)cc1` [Example 135, (S)-4-{2-[1-(4-Fluorophenyl)ethylamino]-6-(pyrazin-2-ylamino)pyrimidin-4-yl}-N-methylbenzenesulfonamide hydrochloride], for which the pIC50 was 6.49. Take `Cc1cn(-c2cc(Nc3cnccn3)nc(N[C@@H](C)c3ccc(F)cc3)c2)cn1` [Example 136, (S)—N^2-[1-(4-Fluorophenyl)ethyl]-4-(4-methyl-1H-imidazol-1-yl)-N^6-(pyrazin-2-yl)pyridine-2,6-diamine dihydrochloride]: the pIC50 is 6.77.

As to `C[C@H](Nc1cc(Nc2cnccn2)cc(Nc2cnccn2)n1)c1ccc(F)cc1` [Example 137, (S)—N^2-[1-(4-Fluorophenyl)ethyl]-N^4,N^6-di(pyrazin-2-yl)pyridine-2,4,6-triamine], the pIC50 was 6.80. Then `C[C@H](Nc1cc(OCC2CC2)cc(Nc2cnccn2)n1)c1ccc(F)cc1` [Example 138, (S)-4-(Cyclopropylmethoxy)-N^2-[1-(4-fluorophenyl)ethyl]-N^6-(pyrazin-2-yl)pyridine-2,6-diamine], with 6.38; and `C[C@@H](c1ccc(F)cc1)N(C)c1cc(-c2cnn(C)c2)cc(Nc2cnccn2)n1` [Example 139, (S)—N^2-[1-(4-Fluorophenyl)ethyl]-N^2-methyl-4-(1-methyl-1H-pyrazol-4-yl)-N^6-(pyrazin-2-yl)pyridine-2,6-diamine hydrochloride], with 6.54.

On to `C[C@H](Nc1cc(CO)cc(Nc2cnccn2)n1)c1ccc(F)cc1` [Example 140, (S)-{2-[1-(4-Fluorophenyl)ethylamino]-6-(pyrazin-2-ylamino)pyridin-4-yl}methanol], for which the pIC50 is 7.21. As for `C[C@H](Nc1cc(C(=O)O)cc(Nc2cnccn2)n1)c1ccc(F)cc1` [Example 141, (S)-2-[1-(4-Fluorophenyl)ethylamino]-6-(pyrazin-2-ylamino)isonicotinic acid], the pIC50 was 6.36. Then `COCCOc1cc(Nc2cnccn2)nc(N[C@@H](C)c2ccc(F)cc2)c1` [Example 142, (S)—N^2-[1-(4-Fluorophenyl)ethyl]-4-(2-methoxyethoxy)-N^6-(pyrazin-2-yl)pyridine-2,6-diamine hydrochloride], with 7.18; and `C[C@H](Nc1nc(C#N)cc(Nc2cnccn2)n1)c1ccc(F)cc1` [Example 143, (S)-2-[1-(4-Fluorophenyl)ethylamino]-6-(pyrazin-2-ylamino)pyrimidine-4-carbonitrile], with 5.68; and `C[C@H](Nc1cc(C#N)cc(Nc2cnccn2)n1)c1ccc(F)cc1` [Example 144, (S)-2-[1-(4-Fluorophenyl)ethylamino]-6-(pyrazin-2-ylamino)isonicotinonitrile], with 6.68. `C[C@H](Nc1cc(C(N)=O)cc(Nc2cnccn2)n1)c1ccc(F)cc1` [Example 145, (S)-2-[1-(4-Fluorophenyl)ethylamino]-6-(pyrazin-2-ylamino)isonicotinamide] showed a pIC50 of 7.44. Take `C[C@H](Nc1nc(Nc2cnccn2)cc(-c2ncon2)n1)c1ccc(F)cc1` [Example 146, (S)—N^2-[1-(4-Fluorophenyl)ethyl]-6-(1,2,4-oxadiazol-3-yl)-N^4-(pyrazin-2-yl)pyrimidine-2,4-diamine hydrochloride]: the negative logarithm of the IC50 (pIC50) was 5.85. Molecule `C[C@H](Nc1cc(-c2ncon2)cc(Nc2cnccn2)n1)c1ccc(F)cc1` [Example 147, (S)—N^2-[1-(4-Fluorophenyl)ethyl]-4-(1,2,4-oxadiazol-3-yl)-N^6-(pyrazin-2-yl)pyridine-2,6-diamine hydrochloride] had a pIC50 of 6.04.

In turn, `COC(=O)c1ccc(Nc2cnccn2)nc1N[C@@H](C)c1ccc(F)cc1` [Example 148, Methyl (S)-2-[1-(4-fluorophenyl)ethylamino]-6-(pyrazin-2-ylamino)nicotinate] gave a pIC50 of 6.09.

Molecule `C[C@H](Nc1cc(C(=O)N(C)C)cc(Nc2cnccn2)n1)c1ccc(F)cc1` [Example 149, (S)-2-[1-(4-Fluorophenyl)ethylamino]-N,N-dimethyl-6-(pyrazin-2-ylamino)isonicotinamide] showed a pIC50 of 6.16.

For `C[C@H](Nc1cc(C(=O)NCCN(C)C)cc(Nc2cnccn2)n1)c1ccc(F)cc1` [Example 150, (S)—N-[2-(Dimethylamino)ethyl]-2-[1-(4-fluorophenyl)ethylamino]-6-(pyrazin-2-ylamino)isonicotinamide], the pIC50 is 6.82. `C[C@H](Nc1cc(C(=O)NC(C)(C)C)cc(Nc2cnccn2)n1)c1ccc(F)cc1` [Example 151, (S)—N-t-Butyl-2-[1-(4-fluorophenyl)ethylamino]-6-(pyrazin-2-ylamino)isonicotinamide] gave a pIC50 of 6.31. As to `CCNC(=O)c1cc(Nc2cnccn2)nc(N[C@@H](C)c2ccc(F)cc2)c1` [Example 152, (S)—N-Ethyl-2-[1-(4-fluorophenyl)ethylamino]-6-(pyrazin-2-ylamino) isonicotinamide], the pIC50 was 7.03. Regarding `C[C@H](Nc1cc(C(=O)N2CCN(S(C)(=O)=O)CC2)cc(Nc2cnccn2)n1)c1ccc(F)cc1` [Example 153, (S)-{2-[1-(4-Fluorophenyl)ethylamino]-6-(pyrazin-2-ylamino)pyridin-4-yl}[4-(methanesulfonyl)piperazin-1-yl]methanone], the pIC50 was 6.52.

Source of the values: patent US8586591B2, “Aminopyrazine derivative and medicine” (Nippon Shinyaku Co., Ltd., priority 2009, dated 2013).
